Data set [1] is described as follows: Chemical hydrolysis in aqueous buffers (PBS pH 7.3 / 8.0, citrate buffer pH 2.0), RP18-HPLC. As to conditions: for half-life at 1.9 mM: phosphate buffered saline. It is filed as physicochemical. As for the experimental part: All metabolite mixtures were analyzed and quantified by means of analytical RP18-HPLC (UV detection).
The solution was incubated at 37 °C in a thermomixer. […] for each extraction and stored at −30 °C. When testing, samples were warmed up to room temperature, and 25 or 20 μL of the liquid was taken and injected into the analytical RP-18-HPLC instrument. Further aliquots were taken for monitoring the kinetic hydrolysis.
5.88 g of citric acid and 3.58 g of NaCl were dissolved in 82 mL of hydrochloric acid (0.1 mol/L). Then, sodium hydroxide was added to adjust the pH to 2.0.

Data set [2] concerns HIV-2 (ROD). The data set can be described thus: Anti-HIV replication assay, HIV-2 (ROD) in thymidine kinase-deficient CEM/TK– cells. The class given is cell-based. The settings on record: for selectivity index (SI): CC50/EC50, HIV-2 (ROD) in CEM/TK– cells; for EC50: Human immunodeficiency virus 2, CEM/TK– cells, mean ± SD, n = 2–3, read-out: CEM/TK– HIV-2 (ROD) EC50. As for the experimental part:
(§1) Inhibition of HIV-1(HE)- and HIV-2(ROD)-induced cytopathogenicity in wild-type CEM/0 CEM CD4^+ T-cells and thymidine kinase-deficient CEM/TK^– cell cultures was measured in microtiter 96-well plates containing ∼3 × 10^5 CEM cells/mL infected with 100 CCID50 of HIV per milliliter and containing appropriate dilutions of the test compounds. After 4–5 days of incubation at 37 °C in a CO2-controlled humidified atmosphere, virus-induced cellular effects and syncytia cell formation were examined microscopically.

The conditions of data set [3]: PBS; cited from earlier work.
The nature of data set [4]: Cytotoxicity, inhibition of CEM cell proliferation. It is filed as cell-based. As to conditions: human, CEM cells (CD4+ T-cells), read-out: toxicity CC50.
Data set [5] relates to pig liver esterase (PLE). The arrangement: method as in PMID 26503889. The settings on record: cited from earlier work.
The subject of data set [6] is HIV-1 (HE). The data set can be described thus: Anti-HIV replication assay, HIV-1 (HE) in wild-type CEM/0 cells. The class given is cell-based. As to conditions: Human immunodeficiency virus 1, CCRF-CEM; wild-type CEM/0 cells; mean ± SD, n = 2–3; read-out: HIV-1 (HE) EC50. As for the experimental part:
as §1, with “microscopically. The EC50 (50% effective concentration) was defined as the compound concentration required to inhibit HIV-induced giant cell formation by 50%.” for “microscopically.”

Data set [7] has as its system HIV-2 (ROD). The data set can be described thus: Anti-HIV replication assay, HIV-2 (ROD) in wild-type CEM/0 cells. The settings on record: for selectivity index (SI): CC50/EC50, HIV-2 (ROD) in CEM cells; for EC50: Human immunodeficiency virus 2, CCRF-CEM, wild-type CEM/0 cells, mean ± SD, n = 2–3, read-out: HIV-2 (ROD) EC50. It is filed as cell-based. As for the experimental part:
as §1

A short description of data set [8]: Cytotoxicity, inhibition of CEM/TK– cell proliferation. The class given is cell-based. As to conditions: human, CEM/TK– cells (CD4+ T-cells), read-out: toxicity CC50.
Data set [9] is described as follows: Hydrolysis in CEM/0 cell extracts. The class given is in vitro ADME. As to conditions: human, 37 °C, read-out: CEM/0 cell extracts t1/2 (converted). As for the experimental part: Next, TetraPPPPro-nucleotides 4–9 were incubated in human CD4^+ T-lymphocyte CEM/0 cell extracts to study their stability and identify the hydrolysis products.
CEM cells were grown in RPMI-1640-based cell culture medium to a final density of ∼3 × 10^6 cells/mL. Cells were centrifuged for 10 min at 1250 rpm at 4 °C and washed twice with cold PBS, and the pellet was resuspended at 10^8 cells/mL and sonicated (Hielscher Ultrasound Techn., 100% amplitude, 3·times for 10 s) to destroy cell integrity. Next, the resulting cell suspension was centrifuged at 10,000 rpm to remove cell debris. Finally, the supernatant was divided into aliquots and frozen at −80 °C.
(§2) 6.0 mM hydrolysis solutions of compounds 4–9 were prepared from 21 μL of 50 mM DMSO stock solutions and 154 μL of DMSO. Two different samples, including 10 μL of water and 10 μL of 6.0 mM hydrolysis solution, were prepared in 2 mL Eppendorf vials. Next, 50 μL of human CEM cell extracts or 50 μL of human citrate plasma were added to the mixture, the reaction was started, and the mixture was incubated at 37 °C for different time periods. The reactions were stopped by the addition of 150 μL of MeOH. The resulting suspension was kept on ice for 5 min, followed by defrosting and centrifugation at 14,000 rpm (Heraeus, Biofuge Pico) for 22 min. The supernatants (80 or 60 μL) were directly injected into HPLC. The calculation of t1/2 was performed analogously to that for the chemical hydrolysis studies.

The nature of data set [10]: Hydrolysis in citrate-stabilized human plasma. It is filed as in vitro ADME. As to conditions: 37 °C, read-out: t1/2 in citrate-stabilized human plasma (converted). As for the experimental part: Finally, the supernatant was divided into aliquots and frozen at −80 °C.
as §2, with “Two” for “6.0 mM hydrolysis solutions of compounds 4–9 were prepared from 21 μL of 50 mM DMSO stock solutions and 154 μL of DMSO. Two”

Data set [11] relates to pig liver esterase (PLE). The data set can be described thus: Enzymatic hydrolysis with pig liver esterase (PLE). The class given is in vitro ADME. The settings on record: pig liver esterase in phosphate buffer, PLE in phosphate buffer pH 7.3, 37 °C, read-out: PLE t1/2 (converted). As for the experimental part: To confirm the enzymatic hydrolysis process, TetraPPPPro-nucleotides 4–9 bearing different kinds of lipophilic groups attached to the δ-phosph(on)ate group were incubated with PLE in phosphate buffer.
Then, 833 μL of 50 mM phosphate buffer (pH 7.3) and 125 μL of DMSO were added to the 6.0 mM hydrolysis solutions. The reaction was started by addition of 62.5 μL of PLE in phosphate buffer (100 units/mL), and the mixture was incubated at 800 rpm at 37 °C in a thermomixer. (1). At different times, aliquots (75 μL) were taken and stopped by the addition of […] of MeOH. The mixture was stored in liquid nitrogen. When testing, samples were warmed up to room temperature, and 60 μL of the liquid was directly injected into HPLC analysis. (2). 40 μL for each extraction was stored in liquid nitrogen. When testing, samples were warmed up to room temperature, and 30 μL of the liquid was taken and injected into the analytical RP-18-HPLC instrument. The calculation of t1/2 was performed analogously to that for the chemical hydrolysis studies.

A further data set concerns CD4+ T-cell (CEM). As to conditions: CEM cell proliferation; read-out: toxicity CC50; cited from earlier work.
Data set [12] relates to HIV-1 (HE). As to conditions: CEM/0 cells; cited from earlier work.
Setting [13] is: PBS, pH 8.0, 37 °C, read-out: PBS pH 8.0 t1/2 (converted).
Setting [14] is: 25 mM PBS, pH 7.3, 37 °C, read-out: PBS pH 7.3 t1/2 (converted).

Like-named read-outs stand apart in the source and are kept apart here.

One may read the CC50 as the concentration giving 50% cytotoxicity. `CCCCCCCCCC(=O)Oc1ccc(COP(=O)(OCc2ccc(OC(=O)CCCCCCCCC)cc2)OP(=O)(O)OP(=O)(O)OC[C@@H]2C=C[C@H](n3cc(C)c(=O)[nH]c3=O)O2)cc1` [1a, γ-(AB-C9; AB-C9)-d4TTP, reference compound]: the half-life at 1.9 mM in [1] (setting [13]) is 68 h. Also, the “selectivity index (SI)” value with HIV-2 (ROD) [2] is on record as 172; in the data set with HIV-2 (ROD) [7], 1109. Moreover, the EC50 with HIV-2 (ROD) [2] was found to be 0.29 ± 0.19 µM; with HIV-1 (HE) [6], 0.042 ± 0.02 µM; in the data set on HIV-2 (ROD) [7], 0.066 ± 0.026 µM. The “PBS pH 7.3 t1/2” value in data set [3] is 44[43] h. Also, the 50% cytotoxic concentration (CC50) in data set [4] worked out at 73.2 µM; in [8], 50 µM. In addition, the “PLE t1/2” value with pig liver esterase (PLE) [5] was 0.082[43] h.

Consider `CCCCCCCCCC(=O)Oc1ccc(COP(=O)(OCc2ccc(OC(=O)CCCCCCCCC)cc2)OP(=O)(O)OP(=O)(O)OP(=O)(O)OC[C@@H]2C=C[C@H](n3cc(C)c(=O)[nH]c3=O)O2)cc1` [compound 8, δ-(AB-C9; AB-C9)-d4T4P], for which the half-life at 1.9 mM in data set [1] (setting [14]) is 26 h. The half-life at 0.86 mM in data set [9] was 1.37 h; in [10] it was 2.8 h. Moreover, the half-life at 0.45 mM in the data set on pig liver esterase (PLE) [11] was 0.07 h. In addition, the “selectivity index (SI)” value is 11 in the data set on HIV-2 (ROD) [2] and 173 in the data set with HIV-2 (ROD) [7]. The figures for the EC50 in the data set with HIV-2 (ROD) [2], in the data set with HIV-1 (HE) [6] and with HIV-2 (ROD) [7] were 4.44 ± 1.54 µM, 0.39 ± 0.16 µM and 0.26 ± 0.14 µM, respectively. For the same molecule, the CC50 in data set [4] came to 45 µM; in data set [8], 50 µM.

Consider `CCCCCCCCCCCCCCCCCCP(=O)(OCCCC)OP(=O)(O)OP(=O)(O)OC[C@@H]1C=C[C@H](n2cc(C)c(=O)[nH]c2=O)O1` (stereo partly shown) [3b, γ-(alkyl-C4)-γ-C-(alkyl-C18)-d4TTP], for which the half-maximal cytotoxic concentration (CC50) in the data set with CD4+ T-cell (CEM) was 33 µM. Further, the “PBS pH 7.3 t1/2” value in data set [3] is given as > 1700 h.

`CCCCCCCCCCCCCCCCCCOP(=O)(OCCCC)OP(=O)(O)OP(=O)(O)OC[C@@H]1C=C[C@H](n2cc(C)c(=O)[nH]c2=O)O1` (stereo partly shown) [3a, γ-(alkyl-C4; alkyl-C18)-d4TTP]: the cytotoxic concentration (CC50) in the data set with CD4+ T-cell (CEM) was 30 µM.

Consider `CCCCCCCCCCCCCCCCCCOP(=O)(OCc1ccc(OC(=O)CCCC)cc1)OP(=O)(O)OP(=O)(O)OP(=O)(O)OC[C@@H]1C=C[C@H](n2cc(C)c(=O)[nH]c2=O)O1` (stereo partly shown) [compound 6, δ-(AB-C4; alkyl-C18)-d4T4P], for which the half-life in [1] (25 mM citrate buffer, pH 2.0, 37 °C) is 27 h. Moreover, the half-life at 1.9 mM in data set [1] (setting [14]) was 77 h; in [1] (setting [13]), 99 h. In addition, the results for the half-life at 0.86 mM in [9] and in data set [10] were 6.67 h and 2.1 h, respectively. Further, the half-life at 0.45 mM with pig liver esterase (PLE) [11] was 1.06 h. Moreover, the results for the “selectivity index (SI)” value in the data set with HIV-2 (ROD) [2] and with HIV-2 (ROD) [7] were 813 and 643, respectively. The EC50 turned out to be 0.059 ± 0.054 µM in the data set on HIV-2 (ROD) [2], 0.083 ± 0.018 µM with HIV-1 (HE) [6] and 0.063 ± 0.032 µM in the data set with HIV-2 (ROD) [7]. The 50% cytotoxic concentration (CC50) in data set [4] came out at 40.5 µM; in [8] it was 48 µM.

As to `CCCCCCCCCCCCCCCCCCP(=O)(OCc1ccc(OC(=O)CCCC)cc1)OP(=O)(O)OP(=O)(O)OC[C@@H]1C=C[C@H](n2cc(C)c(=O)[nH]c2=O)O1` (stereo partly shown) [2b, γ-(AB-C4)-γ-C-(C18)-d4TTP], the CC50 with CD4+ T-cell (CEM) is 19 µM. Moreover, in data set [3], the “PBS pH 7.3 t1/2” value is listed as 646 h. The EC50 in the data set on HIV-1 (HE) [12] is 0.0074 ± 0.0014 µM.

(Values after paper PMC10895676, “Antiviral Activity of Lipophilic Nucleoside Tetraphosphate Compounds” (Journal of Medicinal Chemistry, 2024).)
